Test: xn = mol fraction of the nth substance listed
Conditions: for speed of sound / mass density: Liquid; for speed of sound: Linear variable-path acoustic interferometer; for mass density: Vibrating tube method; for surface tension liquid-gas: Drop volume

CCOC(=O)OCC [diethyl carbonate] + Cc1ccc(C)cc1
Conditions	mass density [kg/m3]	speed of sound [m/s]	surface tension liquid-gas [mN/m]
288.15 K, x1 = 0.0509	871.12	1343.5	–
288.15 K, x1 = 0.0985	876.57	1336.8	–
288.15 K, x1 = 0.1975	887.94	1322.8	–
288.15 K, x1 = 0.2974	899.4	1308.7	–
288.15 K, x1 = 0.3983	910.97	1294.6	–
288.15 K, x1 = 0.5023	922.91	1280.2	–
288.15 K, x1 = 0.5485	928.22	1274	–
288.15 K, x1 = 0.5968	933.78	1267.5	–
288.15 K, x1 = 0.6464	939.5	1261	–
288.15 K, x1 = 0.6992	945.6	1254.2	–
288.15 K, x1 = 0.7976	956.98	1241.8	–
288.15 K, x1 = 0.8515	963.21	1235.1	–
288.15 K, x1 = 0.9	968.83	1229.4	–
288.15 K, x1 = 0.9507	974.69	1223.5	–
293.15 K, x1 = 0.04951	866.58	1322.7	–
293.15 K, x1 = 0.09841	872.13	1315.9	–
293.15 K, x1 = 0.2007	883.74	1301.6	–
293.15 K, x1 = 0.3004	895.04	1287.6	–
293.15 K, x1 = 0.4017	906.52	1273.5	–
293.15 K, x1 = 0.4997	917.64	1260	–
293.15 K, x1 = 0.5976	928.79	1246.8	–
293.15 K, x1 = 0.65	934.76	1239.9	–
293.15 K, x1 = 0.6999	940.46	1233.4	–
293.15 K, x1 = 0.7969	951.55	1221.2	–
293.15 K, x1 = 0.8522	957.87	1214.5	–
293.15 K, x1 = 0.9516	969.28	1203.1	–
298.15 K, x1 = 0.05081	862.33	1301.4	–
298.15 K, x1 = 0.05201	–	–	27.27
298.15 K, x1 = 0.09983	–	–	27.12
298.15 K, x1 = 0.1564	874.2	1286.7	–
298.15 K, x1 = 0.2023	–	–	26.85
298.15 K, x1 = 0.2581	885.6	1272.5	–
298.15 K, x1 = 0.3052	890.87	1265.9	–
298.15 K, x1 = 0.3063	–	–	26.61
298.15 K, x1 = 0.4021	901.73	1252.4	–
298.15 K, x1 = 0.4043	–	–	26.39
298.15 K, x1 = 0.4446	–	–	26.31
298.15 K, x1 = 0.4941	912.05	1239.7	–
298.15 K, x1 = 0.5014	912.87	1238.7	–
298.15 K, x1 = 0.5042	–	–	26.19
298.15 K, x1 = 0.5936	–	–	26.01
298.15 K, x1 = 0.5966	923.58	1226	–
298.15 K, x1 = 0.6896	934.06	1213.8	–
298.15 K, x1 = 0.7041	–	–	25.8
298.15 K, x1 = 0.7459	940.42	1206.7	–
298.15 K, x1 = 0.7994	–	–	25.65
298.15 K, x1 = 0.8968	–	–	25.52
298.15 K, x1 = 0.8987	957.7	1188.4	–
298.15 K, x1 = 0.9492	963.41	1182.6	–
303.15 K, x1 = 0.05001	857.79	1280.6	–
303.15 K, x1 = 0.09883	863.2	1274	–
303.15 K, x1 = 0.1971	874.11	1260.3	–
303.15 K, x1 = 0.3068	886.26	1245	–
303.15 K, x1 = 0.3908	895.57	1233.2	–
303.15 K, x1 = 0.499	907.57	1218.4	–
303.15 K, x1 = 0.5482	913.03	1211.7	–
303.15 K, x1 = 0.6011	918.91	1204.7	–
303.15 K, x1 = 0.6472	924.05	1198.6	–
303.15 K, x1 = 0.6979	929.7	1192.1	–
303.15 K, x1 = 0.7962	940.68	1179.8	–
303.15 K, x1 = 0.9007	952.41	1167.4	–
303.15 K, x1 = 0.951	958.07	1161.6	–
308.15 K, x1 = 0.09736	858.51	1253.3	–
308.15 K, x1 = 0.2045	870.25	1238.5	–
308.15 K, x1 = 0.2963	880.29	1225.7	–
308.15 K, x1 = 0.4046	892.15	1210.4	–
308.15 K, x1 = 0.4955	902.1	1197.8	–
308.15 K, x1 = 0.5478	907.85	1190.9	–
308.15 K, x1 = 0.6058	914.21	1183.1	–
308.15 K, x1 = 0.657	919.84	1176.5	–
308.15 K, x1 = 0.6936	923.87	1171.9	–
308.15 K, x1 = 0.7468	929.74	1165.2	–
308.15 K, x1 = 0.8022	935.86	1158.4	–
308.15 K, x1 = 0.9035	947.12	1146.5	–
